Source: publication PMC3653958, “Identification of Functionally Distinct Na-HCO3 Co-Transporters in Colon” (PLoS ONE, 2013)

Target: T1, NBCe1B/C (electrogenic Na-HCO3 cotransporter) (Rattus norvegicus, UniProt Q9JI66)
T1 construct: gene Slc4a4; native transporter in basolateral membrane vesicles of rat proximal colon (amiloride-insensitive component)
T1 sequence (Q9JI66 1-1079): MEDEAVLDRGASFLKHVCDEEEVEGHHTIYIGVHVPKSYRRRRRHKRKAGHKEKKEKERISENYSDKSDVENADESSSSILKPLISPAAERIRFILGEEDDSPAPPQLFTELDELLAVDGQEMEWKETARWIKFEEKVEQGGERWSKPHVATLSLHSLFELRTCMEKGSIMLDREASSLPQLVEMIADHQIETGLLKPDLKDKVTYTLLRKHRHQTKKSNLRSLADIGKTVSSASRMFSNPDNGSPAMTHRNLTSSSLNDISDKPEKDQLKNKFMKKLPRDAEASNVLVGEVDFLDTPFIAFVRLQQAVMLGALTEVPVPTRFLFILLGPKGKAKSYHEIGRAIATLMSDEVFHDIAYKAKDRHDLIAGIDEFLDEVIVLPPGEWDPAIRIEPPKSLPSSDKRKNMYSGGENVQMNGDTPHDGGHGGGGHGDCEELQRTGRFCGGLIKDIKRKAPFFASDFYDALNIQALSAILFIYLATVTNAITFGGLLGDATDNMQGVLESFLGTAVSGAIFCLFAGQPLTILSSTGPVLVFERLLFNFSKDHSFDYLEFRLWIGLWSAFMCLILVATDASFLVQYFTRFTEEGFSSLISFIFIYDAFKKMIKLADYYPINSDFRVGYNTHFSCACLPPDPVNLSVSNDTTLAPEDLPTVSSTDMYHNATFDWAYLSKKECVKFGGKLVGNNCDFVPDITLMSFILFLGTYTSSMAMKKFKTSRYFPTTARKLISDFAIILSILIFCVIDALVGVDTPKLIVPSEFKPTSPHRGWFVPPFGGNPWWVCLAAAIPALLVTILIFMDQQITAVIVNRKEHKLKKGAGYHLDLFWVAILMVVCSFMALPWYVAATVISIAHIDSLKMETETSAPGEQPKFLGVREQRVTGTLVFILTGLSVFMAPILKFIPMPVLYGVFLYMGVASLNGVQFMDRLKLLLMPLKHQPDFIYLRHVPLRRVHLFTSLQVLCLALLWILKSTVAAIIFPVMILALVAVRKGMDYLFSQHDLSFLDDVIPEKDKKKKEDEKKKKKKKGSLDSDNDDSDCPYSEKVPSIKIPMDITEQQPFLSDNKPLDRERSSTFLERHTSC
Experiment: inhibition of proton/HCO3 gradient-driven […] uptake in native membrane vesicles
Format: biochemical

O=S(=O)(O)c1cc(N=C=S)ccc1/C=C/c1ccc(N=C=S)cc1S(=O)(=O)O [DIDS]
Ki: 8.9 ± 1.2 µM
